Measurements from publication PMC12090776 (2025).

How the values were obtained:
SARS-CoV-2 E = SARS-CoV-2 E (Severe acute respiratory syndrome coronavirus 2, UniProt P0DTC4); format: binding
SINV 6K = SINV 6K (Sindbis virus, UniProt P03316); assay: UV-Vis absorption of retained compound after overnight dialysis; format: binding; details: 3-4x molar excess compound, 1 h on ice, pH 7.6, 0.015% DDM; EGFP negative control
Chain of SINV 6K (P03316 752-806): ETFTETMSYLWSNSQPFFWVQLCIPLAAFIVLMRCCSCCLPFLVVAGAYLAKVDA

Chain of SARS-CoV-2 E (P0DTC4 whole entry): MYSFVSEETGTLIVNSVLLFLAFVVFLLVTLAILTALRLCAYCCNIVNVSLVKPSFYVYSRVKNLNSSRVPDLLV

| SMILES | UV-Vis absorption of retained compound after overnight dialysis (SARS-CoV-2 E) | UV-Vis absorption of retained compound after overnight dialysis (SINV 6K) |
| --- | --- | --- |
| CCN(c1nc(N)c(C(=O)N=C(N)N)nc1Cl)C(C)C [EIPA] | Both 6K (Fig. 2B) and E (Fig. 2C) proteins bind to the compounds | Both 6K (Fig. 2B) and E (Fig. 2C) proteins bind to the compounds |
| N=C(N)NC(=O)c1nc(Cl)c(N2CCCCCC2)nc1N [HMA] | Both 6K (Fig. 2B) and E (Fig. 2C) proteins bind to the compounds | Both 6K (Fig. 2B) and E (Fig. 2C) proteins bind to the compounds |
